# Results as given in ChEMBL document CHEMBL1135275, “Structural approach of the mechanism of inhibition of alpha-chymotrypsin by coumarins” (Bioorg Med Chem Lett, 2002).
# Target: Chymotrypsinogen B (Bos taurus) (UniProt P00767)
# Test: The compound was tested for inhibitory potency against Chymotrypsinogen
# Chymotrypsinogen B (Bos taurus), sequence (P00767 16-146 limits assumed, other chains not shown): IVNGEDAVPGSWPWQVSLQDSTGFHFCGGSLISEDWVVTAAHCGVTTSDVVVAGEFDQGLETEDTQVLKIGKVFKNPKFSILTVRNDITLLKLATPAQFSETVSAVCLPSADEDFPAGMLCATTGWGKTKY
# Chymotrypsinogen B (Bos taurus), sequence (P00767 149-245 limits assumed, other chains not shown): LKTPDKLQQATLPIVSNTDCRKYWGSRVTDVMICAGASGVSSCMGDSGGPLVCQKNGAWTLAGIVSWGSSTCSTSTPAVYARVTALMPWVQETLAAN
row,K inact/Km [M⁻¹ s⁻¹],SMILES
1,200,O=C(Nc1ccccc1)c1cc2cc(CCl)ccc2oc1=O
2,2400,O=C(c1ccccc1)c1cc2cc(CCl)ccc2oc1=O
3,48000,O=C(Sc1ccccc1)c1cc2cc(CCl)ccc2oc1=O
4,100000,O=C(Oc1ccccc1)c1cc2cc(CCl)ccc2oc1=O
5,10000,O=C(Cc1ccccc1)c1cc2cc(CCl)ccc2oc1=O
